From patent US8029764B2, “Methods for detection of colorectal cancer” (The Johns Hopkins University, priority 2001, dated 2011)

Test system: colorectal tissue transcripts
Assay: SAGE of normal, adenoma and cancer colorectal tissue (transcript tag counts)
Parameters: species or system human
From the text: In an effort to identify potential molecular markers of early colorectal tumors, we have here analyzed gene expression in benign and malignant colorectal tumors in an unbiased and comprehensive fashion. We used SAGE to analyze global gene expression in normal, benign and malignant colorectal tissue. SAGE is a gene expression profiling method that associates individual mRNA transcripts with 15-base tags derived from specific positions near their 3′ termini (3). The abundance of each tag provides a quantitative measure of the transcript level present within the mRNA population studied. SAGE is not dependent on pre-existing databases of expressed genes, and therefore provides an unbiased view of gene expression profiles. For the current study, SAGE libraries derived from two samples of normal colonic epithelium, two colorectal adenomas, and two colorectal cancers were analyzed.
SAGE. For the initial SAGE^3 of benign tumors, fresh adenomas were obtained from surgical specimens derived from FAP patients. Adenomas from FAP patients were employed because of the ready availability of small lesions and the certainty of inactivation of the APC pathway which initiates the formation of the majority of sporadic tumors. After histopathological verification of the neoplastic nature of the lesion (>70% neoplastic cells), total RNA was isolated by solubilizing the tissue in RNAgents Lysis Buffer (Promega, Madison, Wis.) followed by ultracentrifugation over a cesium chloride gradient. mRNA selection was performed from the purified total RNA using oligo(dT) cellulose (Life Technologies, Gaithersburg, Md.). […] Tags were extracted from the raw sequence data and, after excluding repeated ditags, linker sequences, and tags from the polyrnorphic Major Histocompatibility loci, the resulting tag libraries were compared and statistical analysis performed using SAGE software, version 4.0. Data from the libraries are publicly available at the Uniform Resource Locator (URL) address for the http file type found on the www host server that has a domain name of ncbi.nlm.nih.gov, and a path to the directory SAGE, and detailed SAGE protocols are available at the Uniform Resource Locator (URL) address for the http file type found on the www host server that has a domain name of sagenet.org, and file name of sage_protocol.htn.

[1] = normal colorectal tissue library 1
[2] = normal colorectal tissue library 2

| Sequence | AD1 (SAGE tag count) (adenoma library 1) | AD2 (SAGE tag count) (adenoma library 2) | CA1 (SAGE tag count) (cancer library 1) | CA2 (SAGE tag count) (cancer library 2) | NC1 (SAGE tag count) [1] | NC2 (SAGE tag count) [2] | AD1 (SAGE tag count) (SAGE library AD1) | AD2 (SAGE tag count) (SAGE library AD2) | CA1 (SAGE tag count) (SAGE library CA1) | CA2 (SAGE tag count) (SAGE library CA2) | NC1 (SAGE tag count) (SAGE library NC1) | NC2 (SAGE tag count) (SAGE library NC2) |
| --- | --- | --- | --- | --- | --- | --- | --- | --- | --- | --- | --- | --- |
| TGCAGCGCCT (chemistry not fully specified; the letters are possibly those of the target site) | 1 | 1 | 1 | 1 | 16 | 9 | – | – | – | – | – | – |
| GTCCGAGTGC (chemistry not fully specified) | – | – | – | – | – | – | 0 | 0 | 0 | 0 | 17 | 3 |
| CTGGCAAAGG (chemistry not fully specified) | – | – | – | – | – | – | 1 | 0 | 0 | 0 | 14 | 22 |
| ACATTGGGTG (chemistry not fully specified) | – | – | – | – | – | – | 67 | 34 | 96 | 33 | 377 | 334 |
| GGCTGCCTGC (chemistry not fully specified) | – | – | – | – | – | – | 4 | 3 | 5 | 2 | 13 | 11 |
| CCTGTCTGCC (chemistry not fully specified) | – | – | – | – | – | – | 0 | 1 | 1 | 1 | 14 | 22 |
| CTGACCTGTG (chemistry not fully specified) | – | – | – | – | – | – | 48 | 18 | 16 | 46 | 88 | 130 |
| TTAACCCCTC (chemistry not fully specified) | 5 | 9 | 1 | 5 | 34 | 14 | – | – | – | – | – | – |
| TACTGTGGAT (chemistry not fully specified) | 0 | 2 | 2 | 1 | 4 | 11 | – | – | – | – | – | – |
| ATGCGGGAGA (chemistry not fully specified) | – | – | – | – | – | – | 15 | 22 | 5 | 6 | 38 | 39 |
| TGCAGCACGA (chemistry not fully specified) | 5 | 30 | 24 | 16 | 6 | 185 | – | – | – | – | – | – |
| GGAAGAGCAC (chemistry not fully specified) | – | – | – | – | – | – | 1 | 1 | 2 | 5 | 21 | 11 |
| CTTAGAGGGG (chemistry not fully specified) | – | – | – | – | – | – | 0 | 1 | 1 | 1 | 16 | 22 |
| GGCTGGGCCT (chemistry not fully specified) | – | – | – | – | – | – | 14 | 5 | 10 | 8 | 46 | 25 |
| CTGTACTTGT (chemistry not fully specified) | – | – | – | – | – | – | 1 | 1 | 0 | 0 | 9 | 5 |
| AGCCCGACCA (chemistry not fully specified) | – | – | – | – | – | – | 2 | 4 | 1 | 3 | 16 | 8 |
| GCAAGAAAGT (chemistry not fully specified) | – | – | – | – | – | – | 0 | 4 | 0 | 1 | 48 | 0 |

| Sequence | AD1 (SAGE tag count) (adenoma library 1) | AD2 (SAGE tag count) (adenoma library 2) | CA1 (SAGE tag count) (cancer library 1) | CA2 (SAGE tag count) (cancer library 2) | NC1 (SAGE tag count) [1] | NC2 (SAGE tag count) [2] | AD1 (SAGE tag count) (SAGE library AD1) | AD2 (SAGE tag count) (SAGE library AD2) | CA1 (SAGE tag count) (SAGE library CA1) | CA2 (SAGE tag count) (SAGE library CA2) | NC1 (SAGE tag count) (SAGE library NC1) | NC2 (SAGE tag count) (SAGE library NC2) |
| --- | --- | --- | --- | --- | --- | --- | --- | --- | --- | --- | --- | --- |
| ACGGTCCAGG (chemistry not fully specified) | – | – | – | – | – | – | 0 | 0 | 0 | 1 | 5 | 12 |
| TGGGGAGAGG (chemistry not fully specified) | 20 | 7 | 3 | 7 | 43 | 18 | – | – | – | – | – | – |
| CCTGCTGCAG (chemistry not fully specified) | – | – | – | – | – | – | 0 | 1 | 6 | 9 | 7 | 34 |
| TGCTCCTACC (chemistry not fully specified; the letters are possibly those of the target site) | 70 | 22 | 17 | 22 | 140 | 113 | – | – | – | – | – | – |
| GCAGCTCCTG (chemistry not fully specified) | – | – | – | – | – | – | 3 | 2 | 7 | 3 | 13 | 47 |
| GCTTGGGGAT (chemistry not fully specified) | – | – | – | – | – | – | 2 | 0 | 0 | 0 | 11 | 8 |
| GCCCACACAG (chemistry not fully specified) | – | – | – | – | – | – | 1 | 1 | 0 | 0 | 15 | 0 |
| CACCCCTGAT (chemistry not fully specified) | – | – | – | – | – | – | 58 | 58 | 13 | 36 | 73 | 169 |
| AAGAAAGCTC (chemistry not fully specified) | – | – | – | – | – | – | 0 | 2 | 1 | 5 | 20 | 6 |
| GCCCAGGTCA (chemistry not fully specified) | – | – | – | – | – | – | 136 | 128 | 58 | 22 | 519 | 447 |
| CTTGATTCCC (chemistry not fully specified) | – | – | – | – | – | – | 5 | 0 | 2 | 5 | 26 | 9 |
| GCACCCTTTC (chemistry not fully specified) | – | – | – | – | – | – | 0 | 0 | 1 | 0 | 13 | 5 |
| GGGCGCTGTG (chemistry not fully specified) | – | – | – | – | – | – | 3 | 6 | 4 | 5 | 11 | 27 |
| CCTGCCCCCC (chemistry not fully specified) | – | – | – | – | – | – | 6 | 3 | 11 | 4 | 20 | 30 |
| CCCCCGAAGC (chemistry not fully specified) | – | – | – | – | – | – | 3 | 15 | 4 | 8 | 25 | 27 |
| AAGGTAGCAG (chemistry not fully specified) | – | – | – | – | – | – | 2 | 4 | 2 | 4 | 15 | 16 |
